For assay [1], the target named is rat sst1 receptors (Rattus norvegicus, UniProt P28646). Nature of the assay: radioligand binding, rat sst1 receptors. The following applies: read-out: affinity for rat sst1 receptors, pIC50 (converted). The source says: (§1) In particular the agents of the invention bind to somatostatin receptors.
(§2) For all the above indications the preferred compound is [3R,4aR,10aR]-1,2,3,4,4a,5,10, 10a-octahydro-6-methoxy-1 -methyl-benzo[g]quinoline-3-carboxylic acid 4-(4-nitro-phenyl)-piperazine amide, which is the compound of example 1.

Assay [2] deals with T1, recombinant human sst1 receptors (Homo sapiens, UniProt P30872).
T1 construct: expressed in transfected cells
Nature of the assay: radioligand binding, recombinant human sst1 receptors. Particulars: read-out: affinity for recombinant human sst1 receptors, pIC50 (converted).
Description: as §1, §2

In assay [3] the test system is neurotransmitter receptors. Nature of the assay: activity at a wide range of neurotransmitter receptors. In kind it is binding.
Description: as §2

The nature of assay [4]: intruder mouse test. Particulars: for social withdrawal in the intruder mouse test, standard anti-manic drugs: 3-30 mg/kg s.c. It counts as in vivo.
Description: as §2

Assay [5] in a line: Matched Pairs Situation test. It counts as in vivo, mice. The following applies: for potency compared with the compound of example 1: Matched Pairs Situation test and intruder mouse test, 3-30 mg/kg s.c. versus 1-10 mg/kg s.c.
Description: Furthermore at said doses the compounds of the invention reduce aggressive behavior (attacks, chases, bites) in the Matched Pairs Situation test in mice [Dixon et al., J. Clin. Psychiatry 55: (9) [Suppl. B] 4-7 (1994)]. […] They are therefore indicated for the treatment of affective disorders including bipolar disorders e.g. manic-depressive psychoses, extreme psychotic states e.g. mania, schizophrenia, and excessive mood swings where behavioral stabilization is desired. In addition, the compounds are indicated in anxiety states, generalized anxiety as well as social and agoraphobia, as well as those behavioural states characterized by social withdrawal e.g. negative symptoms.
as §2

Chain of rat sst1 receptors (P28646 whole entry): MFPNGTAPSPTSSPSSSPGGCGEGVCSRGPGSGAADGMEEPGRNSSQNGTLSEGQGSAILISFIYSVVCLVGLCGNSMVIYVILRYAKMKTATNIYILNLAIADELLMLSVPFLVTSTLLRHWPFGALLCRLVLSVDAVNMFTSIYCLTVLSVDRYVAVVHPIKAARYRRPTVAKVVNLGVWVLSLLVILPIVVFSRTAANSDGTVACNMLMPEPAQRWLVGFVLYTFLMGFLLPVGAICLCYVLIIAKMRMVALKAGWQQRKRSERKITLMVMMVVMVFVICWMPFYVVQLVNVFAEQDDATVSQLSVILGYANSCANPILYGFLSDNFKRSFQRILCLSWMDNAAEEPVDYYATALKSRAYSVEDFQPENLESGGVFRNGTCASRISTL
T1 sequence (P30872 whole entry): as the sequence (P28646 whole entry) above, with P8S, T11S, S16P, G20S, V25G, C26G, S32A, S45A, A385T, S389T counted along it

As for `COc1cccc2c1C[C@H]1C[C@@H](C(=O)N3CCN(c4ccc([N+](=O)[O-])cc4)CC3)CN(C)[C@@H]1C2` [Example 1, [3R,4aR,10aR]-1,2,3,4,4a ,5,10,10a-octahydro-6-methoxy-1-methyl-benzo[g]quinoline-3-carboxylic acid 4-(4-nitro-phenyl)-piperazine amide], the IC50 was 0.794 nM in assay [1] and 20 nM in assay [2]. Besides, the “activity for a wide range of neurotransmitter receptors” value in assay [3] was “without significant activity”. The “social withdrawal in the intruder mouse test” value in assay [4] (1-10 mg/kg s.c.) is recorded as “reverses social withdrawal”. In addition, the “aggressive behavior in the Matched Pairs Situation test” value in assay [5] (1-10 mg/kg s.c.) is recorded as “clearly lowers aggressive behavior”.
Turning to `NC(=O)N1c2ccccc2C=Cc2ccccc21` [carbamazepine], the “social withdrawal in the intruder mouse test, standard anti-manic drugs” value in assay [4] is reported as “These effects are also observed”. Besides, the “potency compared with the compound of example 1” value in assay [5] was “less potent”.
Regarding `[Li]` [lithium], the “social withdrawal in the intruder mouse test, standard anti-manic drugs” value in assay [4] is “These effects are also observed”. In addition, in assay [5], the “potency compared with the compound of example 1” value is “less potent”.
